Experimental data reported in patent US20210222225A1, “Medium for Disk Diffusion Method to Evaluate Antibiotic Sensitivity” (priority 2018, published 2021).
Structures can show the parent of a compound that is named as a salt.

Columns and labels:
[1] = tested on: ABA, KPN and PAE strains; experiment: Growth of strain on guanidine hydrochloride-containing medium; format: cell-based; conditions: guanidine hydrochloride 5 to 50 μg/ml; agar 5.1 g/L
Method: A concentration of agar particles (BD Diagnostic, Sparks, Md., USA) in Mueller-Hinton broth medium (BD Diagnostic) was adjusted to 5.1 g/L, which is 30% of 17 g/L, and guanidine hydrochloride was added to a concentration of 500 μg/ml, 50 μg/ml, or 5 μg/ml. Then, solidification was performed. On a surface of each medium thus prepared was evenly inoculated each of colistin-susceptible (S) or -resistant (R) Acinetobacter baumannii (ABA) strain, colistin-susceptible (S) or -resistant (R) Klebsiella pnemoniae (KPN) strain, and colistin-susceptible (S) or -resistant (R) Pseudomonas aeruginosa (PAE) strain, and a colistin disk was placed thereon.

[2] = tested on: Colistin-resistant Acinetobacter; experiment: Growth of strain on protamine-containing medium, ACB-R; format: cell-based, Acinetobacter calcoaceticus-baumannii complex
Method: (§1) As in Example 1, a concentration of agar particles (BD Diagnostic, Sparks, Md., USA) in Mueller-Hinton broth medium (BD Diagnostic) was adjusted to 17 g/L or 5.1 g/L that is 30% of 17 g/L. To select a concentration of protamine, which can enhance diffusion of colistin from a disk without interfering with bacterial growth, while using the protamine at various concentrations, protamine (Sigma-Aldrich, St Louis, Mo., USA) was added to the medium at concentrations of 1 mg/ml, 700 μg/ml, 400 μg/ml, 300 μg/ml, 200 μg/ml, 150 μg/ml, 100 μg/ml, and 50 μg/ml. Each medium thus modified was solidified. Then, on a surface of each medium was evenly inoculated each of colistin-susceptible (S) or -resistant (R) Acinetobacter calcoaceticus-baumannii complex (ACB) strain, Pseudomonas aeruginosa ATCC27853 strain, and mcr-1-harboring Enterobacter aerogenes strain, and a colistin disk was placed thereon. Then, it was determined whether each strain was grown, and a diameter of a growth inhibition zone, which had been formed around the disk, was measured.

[3] = tested on: Colistin-susceptible Acinetobacter; experiment: Growth of strain on protamine-containing medium, ACB-S; format: cell-based, Acinetobacter calcoaceticus-baumannii complex
Method: as §1

[4] = tested on: PAE ATCC 27853; experiment: Growth of strain on protamine-containing medium, PAE; format: cell-based, Pseudomonas aeruginosa
Method: as §1

[5] = tested on: mcr-1-harboring Enterobacter aerogenes strain; experiment: Growth of strain on protamine-containing medium, mcr-1; format: cell-based
Method: as §1

N=C(N)N [guanidine hydrochloride]
not inhibited: growth of the strain [1]

protamine
Grown: Growth ([2]; 30% agar, protamine 50 μg/ml) | Growth ([2]; 30% agar, protamine 100 μg/ml) | Growth ([2]; 30% agar, protamine 150 μg/ml) | Growth ([2]; 100% agar, protamine 50 μg/ml) | Growth ([2]; 100% agar, protamine 100 μg/ml) | Growth ([2]; 100% agar, protamine 150 μg/ml) | Growth ([2]; 100% agar, protamine 200 μg/ml) | Growth ([2]; 100% agar, protamine 300 μg/ml) | Growth ([2]; 100% agar, protamine 400 μg/ml) | Growth ([3]; 30% agar, protamine 50 μg/ml) | Growth ([3]; 30% agar, protamine 100 μg/ml) | Growth ([3]; 30% agar, protamine 150 μg/ml) | Growth ([3]; 100% agar, protamine 50 μg/ml) | Growth ([3]; 100% agar, protamine 100 μg/ml) | Growth ([3]; 100% agar, protamine 150 μg/ml) | Growth ([3]; 100% agar, protamine 200 μg/ml) | Growth ([3]; 100% agar, protamine 300 μg/ml) | Growth ([3]; 100% agar, protamine 400 μg/ml) | Growth ([3]; 100% agar, protamine 700 μg/ml) | Growth ([4]; 30% agar, protamine 50 μg/ml) | Growth ([4]; 30% agar, protamine 100 μg/ml) | Growth ([4]; 30% agar, protamine 150 μg/ml) | Growth ([4]; 30% agar, protamine 200 μg/ml) | Growth ([4]; 100% agar, protamine 50 μg/ml) | Growth ([4]; 100% agar, protamine 100 μg/ml) | Growth ([4]; 100% agar, protamine 150 μg/ml) | Growth ([4]; 100% agar, protamine 200 μg/ml) | Growth ([4]; 100% agar, protamine 300 μg/ml) | Growth ([4]; 100% agar, protamine 400 μg/ml) | Growth ([5]; 30% agar, protamine 50 μg/ml) | Growth ([5]; 30% agar, protamine 100 μg/ml) | Growth ([5]; 30% agar, protamine 150 μg/ml) | Growth ([5]; 30% agar, protamine 200 μg/ml) | Growth ([5]; 100% agar, protamine 50 μg/ml) | Growth ([5]; 100% agar, protamine 100 μg/ml) | Growth ([5]; 100% agar, protamine 150 μg/ml) | Growth ([5]; 100% agar, protamine 200 μg/ml) | Growth ([5]; 100% agar, protamine 300 μg/ml) | Growth ([5]; 100% agar, protamine 400 μg/ml) | Growth ([5]; 100% agar, protamine 700 μg/ml)
